Publication PMC3623729 (Journal of medicinal chemistry, 2013)
Entries after “also recorded” stand apart in the source; their conditions may differ. Structures can show the parent of a compound that is named as a salt.

target: T1, human RXRα (Homo sapiens, UniProt P19793); assay: RXRE-luciferase reporter gene assay; format: cell-based; details: not given
T1 sequence (P19793 1-462): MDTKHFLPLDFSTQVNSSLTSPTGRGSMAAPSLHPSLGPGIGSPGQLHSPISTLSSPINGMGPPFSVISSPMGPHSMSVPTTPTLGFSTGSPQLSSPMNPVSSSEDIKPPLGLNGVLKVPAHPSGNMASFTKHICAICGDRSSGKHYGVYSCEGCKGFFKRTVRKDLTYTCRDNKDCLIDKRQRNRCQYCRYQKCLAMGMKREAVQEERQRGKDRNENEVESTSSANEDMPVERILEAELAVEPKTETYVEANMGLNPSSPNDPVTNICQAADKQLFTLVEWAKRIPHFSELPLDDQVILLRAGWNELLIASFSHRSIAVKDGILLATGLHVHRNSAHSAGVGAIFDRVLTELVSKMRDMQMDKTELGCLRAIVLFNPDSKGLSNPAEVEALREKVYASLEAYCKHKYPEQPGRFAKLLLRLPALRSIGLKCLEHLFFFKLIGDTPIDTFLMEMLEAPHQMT

RXR activity in words (active / inactive)	SMILES
inactive	Cn1c2c(c3ccc(CC(=O)O)cc3c1=O)C(=O)c1ccccc1-2 [Compound 4, 2-(6-Methyl-5,11-dioxo-6,11-dihydro-5H-indeno[1,2-c]isoquinolin-3-yl)acetic Acid]
inactive	Cn1c2c(c3ccc(/C=C/C#N)cc3c1=O)C(=O)c1ccccc1-2 [Compound 11, (E)-3-(6-Methyl-5,11-dioxo-6,11-dihydro-5H-indeno[1,2-c]isoquinolin-3-yl)acrylonitrile]
inactive	COC(=O)/C=C/c1ccc2c3c(n(C)c(=O)c2c1)-c1ccccc1C3=O [Compound 12, (E)-Methyl 3-(6-Methyl-5,11-dioxo-6,11-dihydro-5H-indeno[1,2-c]isoquinolin-3-yl)acrylate]
inactive	Cn1c2c(c3ccc(/C=C/C(=O)O)cc3c1=O)C(=O)c1ccccc1-2 [Compound 13, (E)-3-(6-Methyl-5,11-dioxo-6,11-dihydro-5H-indeno[1,2-c]isoquinolin-3-yl)acrylic Acid]
inactive	Cn1c2c(c3ccc(CCCC(=O)O)cc3c1=O)C(=O)c1ccccc1-2 [Compound 19, 5-(6-Methyl-5,11-dioxo-6,11-dihydro-5H-indeno[1,2-c]isoquinolin-3-yl)butanoic Acid]
inactive	Cn1c2c(c3ccc(C(=O)O)cc3c1=O)C(=O)c1ccccc1-2 [Compound 30, 6-Methyl-5,11-dioxo-6,11-dihydro-5H-indeno[1,2-c]isoquinoline-3-carboxylic Acid]
inactive	Cn1c2c(c3ccc(C(N)=O)cc3c1=O)C(=O)c1ccccc1-2 [Compound 31, 6-Methyl-5,11-dioxo-6,11-dihydro-5H-indeno[1,2-c]isoquinoline-3-carboxamide]
not active	Cc1ccc2c3c(n(C)c(=O)c2c1)-c1ccccc1C3=O [Compound 36, 3,6-Dimethyl-5H-indeno[1,2-c]isoquinoline-5,11(6H)-dione]
inactive	Cn1c2c(c3ccc(C=O)cc3c1=O)C(=O)c1ccccc1-2 [Compound 37, 6-Methyl-5,11-dioxo-6,11-dihydro-5H-indeno[1,2-c]isoquinoline-3-carbaldehyde]
inactive	Cn1c2c(c3ccc(C#N)cc3c1=O)C(=O)c1ccccc1-2 [Compound 39, 3-Cyano-5,11-dihydro-6-methyl-5,11-dioxoindeno[1,2-c]isoquinoline]
inactive	Cn1c2c(c3ccc(NC(=O)C(=O)O)cc3c1=O)C(=O)c1ccccc1-2 [Compound 45]
active	COC(=O)CC(=O)Nc1ccc2c3c(n(CCCN)c(=O)c2c1)-c1ccccc1C3=O [Compound 52]
active	NCCCn1c2c(c3ccc(NCC(=O)O)cc3c1=O)C(=O)c1ccccc1-2 [Compound 61]
active	COC(=O)c1ccc2c3c(n(CCCN(C)C)c(=O)c2c1)-c1ccccc1C3=O.Cl [Compound 70, Methyl 6-(3-(Dimethylamino)propyl)-5,11-dioxo-6,11-dihydro-5H-indeno[1,2-c]isoquinoline-3-carboxylate Hydrochloride]
lack of activity	Cl.NCCCn1c2c(c3ccc(C(=O)O)cc3c1=O)C(=O)c1ccccc1-2 [Compound 72, 6-(3-Aminopropyl)-5,11-dioxo-6,11-dihydro-5H-indeno[1,2-c]isoquinoline-3-carboxylic Acid Hydrochloride]
lack of activity	COC(=O)/C=C/c1ccc2c3c(n(CCCN)c(=O)c2c1)-c1ccccc1C3=O.Cl [Compound 87, (E)-Methyl 3-(6-(3-Aminopropyl)-5,11-dioxo-6,11-dihydro-5H-indeno[1,2-c]isoquinolin-3-yl)acrylate Hydrochloride]
inactive	O=C1c2ccccc2-c2c1c1ccc(Br)cc1c(=O)n2CCCn1ccnc1 [Compound 91, 3-Bromo-6-(3-(1H-imidazol-1-yl)propyl)-5,11-dioxo-6,11-dihydro-5H-indeno[1,2-c]isoquinoline]
inactive	O=C1c2ccccc2-c2c1c1ccc(Br)cc1c(=O)n2CCCN1CCOCC1 [Compound 92, 3-Bromo-6-(3-morpholinopropyl)-5,11-dioxo-6,11-dihydro-5H-indeno[1,2-c]isoquinoline]
active	CN(C)CCCn1c2c(c3ccc(Br)cc3c1=O)C(=O)c1ccccc1-2 [Compound 93, 3-Bromo-6-(3-(dimethylamino)propyl)-5,11-dioxo-6,11-dihydro-5H-indeno[1,2-c]isoquinoline]
inactive	O=C1c2ccccc2-c2c1c1ccc(Br)cc1c(=O)n2CCCO [Compound 94, 3-Bromo-5,6-dihydro-6(3-hydroxypropyl)-5,11-dioxo-indeno[1,2-c]isoquinoline]
active	CNCCCn1c2c(c3ccc(Br)cc3c1=O)C(=O)c1ccccc1-2 [Compound 95, 3-Bromo-5,6-dihydro-6-(3-N-methylaminopropyl)-5,11-dioxo-indeno[1,2-c]isoquinoline]
inactive	O=C(O)CCn1c2c(c3ccc(Br)cc3c1=O)C(=O)c1ccccc1-2 [Compound 97, Lithium 6(2-Carboxyethyl)-3-bromo-5,6-dihydro-5,11-dioxo-11H-indeno[1,2-c]isoquinoline]
inactive	O=C1c2ccccc2-c2c1c1ccccc1c(=O)n2CCCn1ccnc1 [Compound 102, 5,6-Dihydro-6-(3-imidazolyl-1-propyl)-5,11-dioxo-11H-indeno[1,2-c]isoquinoline]
active; also recorded: high activity	CN(C)CCCn1c2c(c3ccccc3c1=O)C(=O)c1ccccc1-2 [Compound 103, 5,6-Dihydro-6-(3-(dimethylamino)-1-propyl)-5,11-dioxo-11Hindeno[1,2-c]isoquinoline]

SMILES	RXR activity in words (active / inactive)
COC(=O)c1ccc2c3c(n(CCCn4ccnc4)c(=O)c2c1)-c1ccccc1C3=O [Compound 68, Methyl 6-(3-(1H-Imidazol-1-yl)propyl)-5,11-dioxo-6,11-dihydro-5H-indeno[1,2-c]isoquinoline-3-carboxylate Hydrochloride]	inactive; also recorded: lack of activity
COC(=O)c1ccc2c3c(n(CCCN4CCOCC4)c(=O)c2c1)-c1ccccc1C3=O [Compound 69, Methyl 6-(3-Morpholinopropyl)-5,11-dioxo-6,11-dihydro-5H-indeno[1,2-c]isoquinoline-3-carboxylate]	inactive; also recorded: lack of activity

same assay, conditions: compounds tested at variable concentrations

SMILES	Max IR: maximum induction ratio observed
Cl.NCCCn1c2c(c3ccc(C(=O)O)cc3c1=O)C(=O)c1ccccc1-2 [Compound 72, 6-(3-Aminopropyl)-5,11-dioxo-6,11-dihydro-5H-indeno[1,2-c]isoquinoline-3-carboxylic Acid Hydrochloride]	NA (NA: Max IR not determined because IR < 2.)
COC(=O)c1ccc2c3c(n(CCCN)c(=O)c2c1)-c1ccccc1C3=O.Cl [Compound 73, Methyl 6-(3-Aminopropyl)-5,11-dioxo-6,11-dihydro-5H-indeno[1,2-c]isoquinoline-3-carboxylate Hydrochloride]	NA (NA: Max IR not determined because IR < 2.)
COC(=O)/C=C/c1ccc2c3c(n(CCCN)c(=O)c2c1)-c1ccccc1C3=O.Cl [Compound 87, (E)-Methyl 3-(6-(3-Aminopropyl)-5,11-dioxo-6,11-dihydro-5H-indeno[1,2-c]isoquinolin-3-yl)acrylate Hydrochloride]	NA (NA: Max IR not determined because IR < 2.)
O=C1c2ccccc2-c2c1c1ccc(Br)cc1c(=O)n2CCCN1CCOCC1 [Compound 92, 3-Bromo-6-(3-morpholinopropyl)-5,11-dioxo-6,11-dihydro-5H-indeno[1,2-c]isoquinoline]	NA (NA: Max IR not determined because IR < 2.)
O=C(O)CCn1c2c(c3ccc(Br)cc3c1=O)C(=O)c1ccccc1-2 [Compound 97, Lithium 6(2-Carboxyethyl)-3-bromo-5,6-dihydro-5,11-dioxo-11H-indeno[1,2-c]isoquinoline]	NA (NA: Max IR not determined because IR < 2.)
O=C1c2ccccc2-c2c1c1ccccc1c(=O)n2CCCn1ccnc1 [Compound 102, 5,6-Dihydro-6-(3-imidazolyl-1-propyl)-5,11-dioxo-11H-indeno[1,2-c]isoquinoline]	NA (NA: Max IR not determined because IR < 2.)
